Structures can show the parent of a compound that is named as a salt.
target: T1, human Mnk2a (Homo sapiens, UniProt Q9HBH9); experiment: Mnk2a in vitro kinase assay (indirect fluorescence polarization); assay type: biochemical; conditions: GST-Mnk2a pre-activated with ERK2, 20 μM ATP, 30 μM substrate peptide; read-out: MNK2 IC50
T1 construct: made in house; host or cells: E. coli BL21 (vector pGEX-4T1)
Procedure, shortened: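 Indirect competitive fluorescence polarization: kinase-generated phospho-product displaces a fluorophore-labelled phospho-peptide from a phospho-specific antibody. Enzyme is N-terminal GST-Mnk2a from E. coli, activated with pre-activated ERK2 and 50 μM ATP; substrate is an amidated 12-mer peptide around eIF4E Ser209.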

T1 sequence (Q9HBH9 whole entry): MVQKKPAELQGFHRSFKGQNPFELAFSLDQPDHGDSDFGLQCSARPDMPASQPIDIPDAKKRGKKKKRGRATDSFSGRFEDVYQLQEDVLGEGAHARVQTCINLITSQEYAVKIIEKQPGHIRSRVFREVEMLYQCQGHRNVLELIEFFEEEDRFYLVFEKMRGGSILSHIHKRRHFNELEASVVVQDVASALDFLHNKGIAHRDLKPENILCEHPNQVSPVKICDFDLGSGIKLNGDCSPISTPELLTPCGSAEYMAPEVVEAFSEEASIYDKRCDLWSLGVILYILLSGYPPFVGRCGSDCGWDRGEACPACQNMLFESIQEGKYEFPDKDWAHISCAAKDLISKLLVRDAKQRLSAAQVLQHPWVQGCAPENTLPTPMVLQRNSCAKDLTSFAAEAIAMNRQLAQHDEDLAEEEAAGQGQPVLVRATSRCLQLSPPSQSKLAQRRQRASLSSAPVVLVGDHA

Point of comparison: `CC(=O)NCCNC(=O)c1sc2ncnc(Nc3ccc(F)cc3OC3CCOCC3)c2c1C` [Example 230], IC50 49 nM. Against it:
- Cc1c(C(=O)NCC(=O)N2CCCC2)sc2ncnc(Nc3ccc(F)cc3OC3CCOCC3)c12 [Example 201] — 1.6-fold lower, 31 nM
- Cc1c(C(=O)NC2CCOC2)sc2ncnc(Nc3ccc(F)cc3OC3CCOCC3)c12 (centres unmarked) [Example 202] — within 1.5-fold, 70 nM
- Cc1c(C(=O)NCC2(O)CCCC2)sc2ncnc(Nc3ccc(F)cc3OC3CCOCC3)c12 [Example 203] — within 1.5-fold, 51 nM
- Cc1c(C(=O)NCC2(C)CCN(C)C2)sc2ncnc(Nc3ccc(F)cc3OC3CCOCC3)c12 (centres unmarked) [Example 204] — within 1.5-fold, 66 nM
- Cc1c(C(=O)NCCc2ccccn2)sc2ncnc(Nc3ccc(F)cc3OC3CCOCC3)c12 [Example 206] — within 1.5-fold, 43 nM
- Cc1c(C(=O)NCCc2cccnc2)sc2ncnc(Nc3ccc(F)cc3OC3CCOCC3)c12 [Example 207] — within 1.5-fold, 41 nM
- Cc1c(C(=O)NCCc2ccncc2)sc2ncnc(Nc3ccc(F)cc3OC3CCOCC3)c12 [Example 208] — within 1.5-fold, 59 nM
- Cc1c(C(=O)NCCN2CCCC2)sc2ncnc(Nc3ccc(F)cc3OC3CCOCC3)c12 [Example 209] — within 1.5-fold, 69 nM
- Cc1c(C(=O)NCCOCCO)sc2ncnc(Nc3ccc(F)cc3OC3CCOCC3)c12 [Example 210] — within 1.5-fold, 60 nM
- Cc1c(C(=O)NCCO)sc2ncnc(Nc3ccc(F)cc3OC3CCOCC3)c12 [Example 211] — 1.7-fold lower, 29 nM
- Cc1c(C(=O)NCCCN2CCOCC2)sc2ncnc(Nc3ccc(F)cc3OC3CCOCC3)c12 [Example 212] — 1.6-fold lower, 31 nM
- Cc1c(C(=O)NCc2cccnc2)sc2ncnc(Nc3ccc(F)cc3OC3CCOCC3)c12 [Example 213] — 2.3-fold lower, 21 nM
- Cc1c(C(=O)NCCN2CCNC2=O)sc2ncnc(Nc3ccc(F)cc3OC3CCOCC3)c12 [Example 214] — 1.6-fold higher, 76 nM
- COCCCNC(=O)c1sc2ncnc(Nc3ccc(F)cc3OC3CCOCC3)c2c1C [Example 215] — 1.6-fold lower, 30 nM
- Cc1c(C(=O)NCC(C)(C)CO)sc2ncnc(Nc3ccc(F)cc3OC3CCOCC3)c12 [Example 216] — within 1.5-fold, 54 nM
- Cc1c(C(=O)NCC2CCCO2)sc2ncnc(Nc3ccc(F)cc3OC3CCOCC3)c12 (centres unmarked) [Example 217] — the same, 49 nM
- CCOCCCNC(=O)c1sc2ncnc(Nc3ccc(F)cc3OC3CCOCC3)c2c1C [Example 218] — within 1.5-fold, 33 nM
- Cc1c(C(=O)NCc2ccccn2)sc2ncnc(Nc3ccc(F)cc3OC3CCOCC3)c12 [Example 219] — within 1.5-fold, 33 nM
- Cc1c(C(=O)NCCCn2ccnc2)sc2ncnc(Nc3ccc(F)cc3OC3CCOCC3)c12 [Example 220] — within 1.5-fold, 42 nM
- Cc1c(C(=O)NCc2ccncc2)sc2ncnc(Nc3ccc(F)cc3OC3CCOCC3)c12 [Example 221] — within 1.5-fold, 38 nM
- Cc1c(C(=O)NCCN2CCCCC2)sc2ncnc(Nc3ccc(F)cc3OC3CCOCC3)c12 [Example 222] — within 1.5-fold, 51 nM
- CCN(CC)CCCNC(=O)c1sc2ncnc(Nc3ccc(F)cc3OC3CCOCC3)c2c1C [Example 223] — 47-fold higher, 2290 nM
- CCC(CO)NC(=O)c1sc2ncnc(Nc3ccc(F)cc3OC3CCOCC3)c2c1C (centres unmarked) [Example 224] — within 1.5-fold, 63 nM
- Cc1c(C(=O)NC2(CO)CCCC2)sc2ncnc(Nc3ccc(F)cc3OC3CCOCC3)c12 [Example 225] — within 1.5-fold, 53 nM
- Cc1c(C(=O)NC(C)(C)CO)sc2ncnc(Nc3ccc(F)cc3OC3CCOCC3)c12 [Example 226] — within 1.5-fold, 55 nM
- CCNC(=O)c1sc2ncnc(Nc3ccc(F)cc3OC3CCOCC3)c2c1C [Example 227] — within 1.5-fold, 47 nM
- Cc1c(C(=O)NCCC#N)sc2ncnc(Nc3ccc(F)cc3OC3CCOCC3)c12 [Example 228] — within 1.5-fold, 35 nM
- C#CCNC(=O)c1sc2ncnc(Nc3ccc(F)cc3OC3CCOCC3)c2c1C [Example 229] — 1.8-fold lower, 27 nM
- Cc1c(C(=O)NCc2ncc[nH]2)sc2ncnc(Nc3ccc(F)cc3OC3CCOCC3)c12 [Example 231] — 2.7-fold lower, 18 nM
- Cc1c(C(=O)NCCOC(C)C)sc2ncnc(Nc3ccc(F)cc3OC3CCOCC3)c12 [Example 232] — within 1.5-fold, 45 nM
- Cc1c(C(=O)NCCc2c[nH]cn2)sc2ncnc(Nc3ccc(F)cc3OC3CCOCC3)c12 [Example 233] — 1.8-fold lower, 27 nM
- CSCCNC(=O)c1sc2ncnc(Nc3ccc(F)cc3OC3CCOCC3)c2c1C [Example 234] — 1.8-fold higher, 90 nM
- Cc1c(C(=O)NS(C)(=O)=O)sc2ncnc(Nc3ccc(F)cc3OC3CCOCC3)c12 [Example 235] — 4.1-fold lower, 12 nM
- Cc1c(C(=O)NCCC[S+](C)[O-])sc2ncnc(Nc3ccc(F)cc3OC3CCOCC3)c12 (centres unmarked) [Example 236] — within 1.5-fold, 33 nM
- CSCCCNC(=O)c1sc2ncnc(Nc3ccc(F)cc3OC3CCOCC3)c2c1C [Example 237] — within 1.5-fold, 36 nM
- Cc1c(C(=O)NCC[S+](C)[O-])sc2ncnc(Nc3ccc(F)cc3OC3CCOCC3)c12 (centres unmarked) [Example 238] — 1.5-fold lower, 32 nM
- CONC(=O)c1sc2ncnc(Nc3ccc(F)cc3OC3CCOCC3)c2c1C [Example 239] — within 1.5-fold, 41 nM
- Cc1c(C(=O)N[C@H]2CCN(C(=O)OC(C)(C)C)C[C@@H]2O)sc2ncnc(Nc3ccc(F)cc3OC3CCOCC3)c12 [Example 241] — within 1.5-fold, 36 nM
- Cc1c(C(=O)N[C@H]2CCCC[C@@H]2O)sc2ncnc(Nc3ccc(F)cc3OC3CCOCC3)c12 [Example 243] — the same, 49 nM
- Cc1c(C(=O)NO)sc2ncnc(Nc3ccc(F)cc3OC3CCOCC3)c12 [Example 244] — 2.6-fold lower, 19 nM
- COCCONC(=O)c1sc2ncnc(Nc3ccc(F)cc3OC3CCOCC3)c2c1C [Example 245] — within 1.5-fold, 39 nM
- Cc1c(C(=O)N[C@H]2CCNC[C@@H]2O)sc2ncnc(Nc3ccc(F)cc3OC3CCOCC3)c12 [Example 246] — 2.7-fold lower, 18 nM
- Cc1c(C(=O)Nc2ccn(C)c(=O)n2)sc2ncnc(Nc3ccc(F)cc3OC3CCOCC3)c12 [Example 247] — within 1.5-fold, 44 nM
- CCN(CC)CC(O)CNC(=O)c1sc2ncnc(Nc3ccc(F)cc3OC3CCOCC3)c2c1C (centres unmarked) [Example 248] — within 1.5-fold, 41 nM
- Cc1c(C(=O)NCCCN2CC[C@@H](O)C2)sc2ncnc(Nc3ccc(F)cc3OC3CCOCC3)c12 [Example 249] — 2.3-fold lower, 21 nM
- Cc1c(C(=O)NCCCN2CC[C@H](O)C2)sc2ncnc(Nc3ccc(F)cc3OC3CCOCC3)c12 [Example 251] — 1.8-fold lower, 28 nM
- Cc1c(C(=O)N2CCCCC2CN2CCOCC2)sc2ncnc(Nc3ccc(F)cc3OC3CCOCC3)c12 (centres unmarked) [Example 252] — 170-fold higher, 8420 nM
- Cc1c(C(=O)NCCCN2CCC(O)CC2)sc2ncnc(Nc3ccc(F)cc3OC3CCOCC3)c12 [Example 253] — within 1.5-fold, 34 nM
- Cc1c(C(=O)N[C@H]2CCC[C@@H]2O)sc2ncnc(Nc3ccc(F)cc3OC3CCOCC3)c12 [Example 254] — within 1.5-fold, 42 nM
- Cc1c(C(=O)N[C@@H]2CCC[C@H]2O)sc2ncnc(Nc3ccc(F)cc3OC3CCOCC3)c12 [Example 255] — 2.2-fold lower, 22 nM
- Cc1c(C(=O)NCC(O)CN(C)C)sc2ncnc(Nc3ccc(F)cc3OC3CCOCC3)c12 (centres unmarked) [Example 256, 4-[4-Fluoro-2-(tetrahydro-pyran-4-yloxy)-phenylamino]-5-methyl-thieno[2,3-d]pyrimidine-6-carboxylic acid (3-dimethylamino-2-hydroxy-propyl)-amide-hydrochloride] — within 1.5-fold, 37 nM
- Cc1c(C(=O)NC2CCN(C)C[C@@H]2O)sc2ncnc(Nc3ccc(F)cc3OC3CCOCC3)c12 (stereo partly drawn) [Example 257, 4-[4-Fluoro-2-(tetrahydro-pyran-4-yloxy)-phenylamino]-5-methyl-thieno[2,3-d]pyrimidine-6-carboxylic acid ((S)-3-hydroxy-1-methyl-piperidin-4-yl)-amide-hydrochloride] — within 1.5-fold, 40 nM
- Cc1c(C(=O)NCCCN2CCCC2)sc2ncnc(Nc3ccc(F)cc3O[C@@H]3CCCOC3)c12 [Example 258, 4-{4-Fluoro-2-[(R)-(tetrahydro-pyran-3-yl)oxy]-phenylamino}-5-methyl-thieno[2,3-d]pyrimidine-6-carboxylic acid (3-pyrrolidin-1-yl-propyl)-amide] — 2.5-fold lower, 20 nM
- Cc1c(C(=O)NC2CCN(C)CC2)sc2ncnc(Nc3ccc(F)cc3O[C@@H]3CCCOC3)c12 [Example 259, 4-{4-Fluoro-2-[(R)-(tetrahydro-pyran-3-yl)oxy]-phenylamino}-5-methyl-thieno[2,3-d]pyrimidine-6-carboxylic acid (1-methyl-piperidin-4-yl)-amide] — within 1.5-fold, 38 nM
- Cc1c(C(=O)NCCO)sc2ncnc(Nc3cccnc3O[C@@H]3CCCOC3)c12 [Example 260, 5-Methyl-4-{2-[(R)-(tetrahydro-pyran-3-yl)oxy]-pyridin-3-ylamino}-thieno[2,3-d]pyrimidine-6-carboxylic acid (2-hydroxy-ethyl)-amide] — within 1.5-fold, 39 nM
- CONC(=O)c1sc2ncnc(Nc3cccnc3O[C@@H]3CCCOC3)c2c1C [Example 261] — within 1.5-fold, 46 nM
- Cc1c(C(=O)NCCCN2CCCC2)sc2ncnc(Nc3cccnc3O[C@@H]3CCCOC3)c12 [Example 262] — within 1.5-fold, 53 nM
- Cc1c(C(=O)NC2CCN(C)CC2)sc2ncnc(Nc3cccnc3O[C@@H]3CCCOC3)c12 [Example 263] — 2.3-fold higher, 115 nM
- Cc1c(C(=O)NCC#CCN(C)C)sc2ncnc(Nc3cccnc3O[C@@H]3CCCOC3)c12 [Example 264] — 2.1-fold lower, 23 nM
- Cc1c(C(=O)NCCCN(C)C)sc2ncnc(Nc3cccnc3O[C@@H]3CCCOC3)c12 [Example 265] — within 1.5-fold, 34 nM
- Cc1c(C(=O)NCC#N)sc2ncnc(Nc3cccnc3O[C@@H]3CCCOC3)c12 [Example 266] — 2-fold lower, 25 nM
- Cc1c(C(N)=O)sc2ncnc(Nc3cccnc3O[C@@H]3CCOC3)c12 [Example 267, 5-Methyl-4-{2-[(R)-(tetrahydro-furan-3-yl)oxy]-pyridin-3-ylamino}-thieno[2,3-d]pyrimidine-6-carboxylic acid amide] — within 1.5-fold, 36 nM
- Cc1c(C(=O)NCCCN(C)C)sc2ncnc(Nc3cccnc3O[C@@H]3CCOC3)c12 [Example 268] — 2-fold higher, 100 nM
- Cc1c(C(N)=O)sc2ncnc(Nc3cccnc3O[C@H]3CCOC3)c12 [Example 269, 5-Methyl-4-{2-[(S)-(tetrahydro-furan-3-yl)oxy]-pyridin-3-ylamino}-thieno[2,3-d]pyrimidine-6-carboxylic acid amide] — within 1.5-fold, 34 nM

From patent publication US8648068B2, “Heterocycloalkyl-containing thienopyrimidines for pharmaceutical compositions” (Boehringer Ingelheim International GmbH, priority 2010, dated 2014)
